# Earlier results as cited in patent publication US8524293B1, “Method for producing a red grape tea-like composition” (priority 2009, dated 2013).
# Tests used:
# [1] = system: flu; details: laboratory animals
# [2] = system: intestinal tumor formation; details: cancerous mouse
Compound,risk of flu [1],focal adhesion kinase activation [2],intestinal tumor formation [2]
O=c1c(O)c(-c2ccc(O)c(O)c2)oc2cc(O)cc(O)c12 [quercetin],reduce the risk of flu,–,–
catechin,–,suppressed focal adhesion kinase activation,inhibited intestinal tumor formation
